Measurements: US7405241B2, “Use of N2O in the treatment of post-ischemic brain cell deterioration” (Air Liquide Sante (International), priority 2003, dated 2008)

Legend:
[1] = system: transient focal cerebral ischemia by middle cerebral artery occlusion (MCAO); assay: Transient focal cerebral ischemia by middle cerebral artery occlusion (MCAO) in rats, infarct volume after gas inhalation; assay type: in vivo; details: rat MCAO, compared to air (mixture No. 1); for post-ischemic volume of cortical infarction: FIG. 3b; for post-ischemic volume of striatal infarction: FIG. 3c; for post-ischemic volume of oedema: FIG. 3d
Method: On day 1, focal ischemia was induced in each of the rats by middle cerebral artery occlusion (MCAO), for a period of 1 h 30 minutes.
The transient focal cerebral ischemia by MCAO is obtained conventionally by introducing a flexible nylon thread 1, represented diagrammatically in FIG. 1 (length 6.5 mm, diameter 180 μm), a portion 2 of the proximal end of which has a diameter greater than that of the thread (length 3 mm, diameter 380 μm), into the vascular system of the rat, as far as the region of the ipsilateral hemisphere so as to cause an embolism therein, i.e. an ischemia.
Next, the rats are reperfused for 10 to 20 minutes, and are then made to inhale several mixtures of gases, namely: • mixture No. 1: air (control) • mixture No. 2: N2O (75% vol), the remainder being oxygen (25%) • mixture No. 3: xenon (50% vol), the remainder being oxygen (20 to 25%) and nitrogen (30 to 25%), respectively • mixture No. 4: xenon (75% vol), the remainder being oxygen (25%).
On day 2, i.e. 24 hours after reperfusion, the rats are killed, the brains are recovered and frozen, and thin sections 40 μm thick are cut and then stained with cresyl violet, as shown in FIG. 5.
The volume of neuronal death is calculated, from the sections obtained after staining, in a conventional manner using an appropriate, commercially available conventional program.
In fact, as shown diagrammatically in FIG. 2, the cerebral ischemia engenders, in general, in 24 hours, an infarction in the region which has been subjected to ischemia (penumbra), leading to neuronal death in the brain cells present in a considerable portion of this region.

[2] = system: brain receptors of the NMDA type; assay: Complementary examination of neurotoxic effects of xenon and N2O versus air on NMDA-type brain receptors (FIG. 4); assay type: in vivo
Method: Based on this observation, complementary examinations were carried out in order to determine the neurotoxic effects of the xenon and of the nitrous oxide (N2O), at various amounts, compared to air, on brain receptors of the NMDA type.

[3] = system: glutamergic receptors for N-methyl-D-aspartate, NMDA; details: in vitro, literature (Franks et al.; Jevtovic-Todorovic et al.; Yamakura and Harris); cited from earlier work

| Compound | post-ischemic volume of cortical infarction [1] | post-ischemic volume of striatal infarction [1] | post-ischemic volume of oedema [1] | volume of deteriorated NMDA receptors ([2]; dose of 50% or 75% by volume, compared to control (air), FIG. 4) | neuroprotection, comparison between doses ([2]; xenon at 50% by volume compared to xenon at 75%) | behaviour at NMDA receptors [3] | neuroprotection, comparison between doses ([2]; N2O at 75% by volume compared to N2O at 50%) | volume of deteriorated NMDA receptors ([2]; in vivo) |
| --- | --- | --- | --- | --- | --- | --- | --- | --- |
| [Xe] [xenon] | decrease | decrease | decrease | smaller volume | more neuroprotective | low-affinity antagonists | – | – |
| [N-]=[N+]=O [N2O, nitrous oxide] | decrease | decrease | decrease | – | – | low-affinity antagonists | more neuroprotective | smaller volume |
